Measurements published in patent publication US9408871B2, “Methods for inhibiting complement activation and uses thereof” (THE UNIVERSITY OF BRITISH COLUMBIA, priority 2013, dated 2016).

What was measured:
[1] = test system: terminal pathway (TP) of complement; test: serum-based terminal pathway (TP) hemolytic assay (2% NHS, C5b,6, chicken erythrocytes); assay type: cell-based, human; details: 100 μM (based on the monomeric form)
Excerpt: Erythrocyte lysis assays were used to measure complement-mediated hemolytic activity. Erythrocyte (RBC) lysis assays as previously described^18,37 were used to measure complement activity. For alternative pathway assays and for total hemolytic activity assays, unsensitized rabbit erythrocytes were used. Chicken erythrocytes were used for the terminal pathway assays.
Erythrocytes were washed three times in GVB with the reaction buffers as indicated, and counted using the Advia 120 Hematology System from Siemens (Siemens, Erlangen, Germany). Reactions in 300 μL were allowed to proceed for 30 min at 37° C., after which unlysed cells were pelleted by centrifugation at 600×g. Erythrocyte lysis, reflected by the released hemoglobin in the supernatant, was quantified by measuring the absorbance at 405 nm using the Mithras LB 940 microplate reader from Berthold Technologies (Bad Wildbad, Germany). Percent lysis was determined relative to the control of 100% lysis with H2O. For total hemolytic and terminal pathway (TP) assays, the concentrations of NHS and C5b,6 to initiate complement activation were established from pilot studies to obtain ˜70-80% erythrocyte lysis at 30 min.
For serum-based terminal pathway (TP) hemolytic assays, components were diluted in GVB containing 10 mM EDTA (GVB-E), the latter added to prevent upstream complement activation and generation of endogenous C5b,6. 2% NHS was used as the source of C7, C8, and C9, and hemolysis of chicken erythrocytes (cRBC) (3.3×10^8 cells/mL) was initiated by addition of exogenous purified C5b,6, the concentration of which was determined from pilot studies to yield ˜70-80% lysis at 30 min. No C5b,6 activity was detected in the NHS prior to initiating the reaction. For some experiments, instead of NHS, purified terminal pathway complement components were used in the TP assays. In these assays, in a final volume of 300 uL GVB, lysis was achieved by the sequential addition of the following components: cRBC (3.3×10^8 cells/mL), C5b,6 (20 μM), C7 (15 nM), C8 (10 nM), and C9 (25 nM). The unlysed cell pellet was removed by centrifugation and lysis was measured immediately after the 30-minute reaction. A standard curve for the terminal pathway assay using serum as the source of complement (FIG. 2) was generated using a fixed serum concentration at 2%, and increasing concentrations of purified C5b,6 dose-dependently lysed chicken erythrocytes after 30 min at 37° C. […] of purified C5b,6 was therefore used to fix baseline lysis at ˜80% to allow assessment of the inhibitory effects of polyphosphate in serum.
TP activity in NHS(2%), measured by lysis of cRBC, was initiated by adding a limiting amount of exogenous purified C5b,6 (250 pM) to achieve 70-80% lysis after 30 min. A molar excess of EDTA was used to prevent upstream activation of complement and generation of endogenous C5b,6. In the absence of C5b,6, there was no detectable complement-mediated cRBC lysis. P1 at concentrations ranging from 0.1 to 1000 μM, had no effect on complement-mediated hemolysis in NHS via the TP (FIG. 5A). By contrast, polyphosphate>1000 inhibited the TP in serum in a concentration-dependent manner, with an IC50 of ˜10 μM polyphosphate>1000 (dotted lines) (calculated based on monomeric phosphate).

[2] = molecular target: T1, C1-esterase inhibitor (C1-inh) (Homo sapiens, UniProt P05155); test: C1s-mediated cleavage of C4 in the presence of C1-inh (SDS-PAGE); assay type: biochemical; details: 10-500 μM, 2.5 nM C1-inh
T1 sequence (P05155 23-500): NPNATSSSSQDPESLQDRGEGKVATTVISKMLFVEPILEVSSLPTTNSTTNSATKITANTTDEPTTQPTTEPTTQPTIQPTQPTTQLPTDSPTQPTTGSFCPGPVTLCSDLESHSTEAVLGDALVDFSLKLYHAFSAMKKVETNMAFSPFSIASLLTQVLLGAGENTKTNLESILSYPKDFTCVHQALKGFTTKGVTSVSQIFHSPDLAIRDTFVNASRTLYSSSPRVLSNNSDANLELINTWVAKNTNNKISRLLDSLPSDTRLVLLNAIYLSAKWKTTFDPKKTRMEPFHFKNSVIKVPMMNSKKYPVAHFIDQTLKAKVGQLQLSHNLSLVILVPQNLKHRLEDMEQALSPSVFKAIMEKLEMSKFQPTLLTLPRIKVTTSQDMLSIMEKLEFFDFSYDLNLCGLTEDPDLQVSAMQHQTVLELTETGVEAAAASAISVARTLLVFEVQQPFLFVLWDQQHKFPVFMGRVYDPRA
Protocol: We tested whether polyP affects the inhibitory properties of C1-inh on C1s-mediated cleavage and activation of complement factor C4 and C2. SDS-PAGE followed by coomassie staining of gels was used to monitor cleavage of C4 by C1s in the presence/absence of C1-inh and/or polyP in a purified system.
2.5 nM C1s (reaction 1) or 2.5 nM C1-inh (reaction 2), and 300 μM polyP were incubated in 20 mM Hepes, 0.15 M NaCl, pH 7.5, 0.01% Tween buffer for 90 minutes at 37° C. 2.5 nM C1-inh (reaction 1) or 0.5 nM C1s (reaction 2) was added and incubated for 30 minutes at 37° C. 1.5 μM C4 was added and incubated for 5 minutes at 37° C. The reactions were quenched with 5× loading buffer and β-ME. Samples were taken and run on an SDS-PAGE 8% gel (FIG. 15B).
Briefly, 2.5 nM C1s with 5-300 μM of polyP130 (reaction 1; FIG. 16A) or polyP1000 (reaction 2; FIG. 16B) were incubated in 20 mM Hepes, 0.15 M NaCl, pH 7.5, 0.01% Tween buffer for 90 minutes at 37° C. 2.5 nM C1s was added and incubated for 30 minutes at 37° C. 1.5 μM C4 was added and incubated for 5 minutes at 37° C. The reactions were quenched with 5× loading buffer and β-ME.
Briefly, 2.5 nM C1s with 10-500 μM of polyP14, polyP60, polyP130, polyP1000 were incubated in 20 mM Hepes, 0.15 M NaCl, pH 7.5, 0.01% Tween buffer for 90 minutes at 37° C. 2.5 nM C1s was added and incubated for 30 minutes at 37° C. […]

Compound	effect on TP hemolytic activity at equivalent concentration [1]	effect of polyP size on C1-inh (C4 cleavage by C1s) [2]
O=P([O-])([O-])OP(=O)([O-])[O-].[Na+].[Na+].[Na+].[Na+] [P2, diphosphate (Na4P2O7)]	had no effect	had no effect on C1-inh
O=P([O-])([O-])OP(=O)([O-])OP(=O)([O-])[O-].[Na+].[Na+].[Na+].[Na+].[Na+] [P3, triphosphate (Na5P3O10)]	had no effect	had no effect on C1-inh
